{"source": "patent US9907312B2", "about": "“Compositions comprising a biological control agent and an insecticide” (priority 2012, dated 2018)", "format_in_all_cases": "in vivo", "key": {"Nilaparvata lugens": {"test_system": "Nilaparvata lugens", "experiment": "Nilaparvata lugens spray test (NILALU), rice plants", "settings": "1 ppm; mortality after 3 d", "protocol": "(§1) For all examples the efficiencies of the compositions comprising at least one BCA and at least one specific insecticide has been determined by the “Colby-formula”: The expected efficacy of a given combination of two compounds is calculated as follows (see Colby, S. R., “Calculating Synergistic and antagonistic Responses of Herbicide Combinations”, Weeds 15, pp. 20-22, 1967):\n(§2) If • X is the efficacy expressed in % mortality of the untreated control for test compound A at a concentration of m ppm respectively m g/ha, • Y is the efficacy expressed in % mortality of the untreated control for test compound B at a concentration of n ppm respectively n g/ha, • E is the efficacy expressed in % mortality of the untreated control using the mixture of A and B at m and n ppm respectively m and n g/ha, then is E=X+Y−(X×Y/100)\n(§3) If the observed insecticidal efficacy of the combination is higher than the one calculated as “E”, then the combination of the two compounds is more than additive, i.e., there is a synergistic effect.\nTo produce a suitable preparation of active compound, 1 part by weight of active compound is mixed with the stated amount of solvent and emulsifier, and the concentrate is diluted with emulsifier-containing water to the desired concentration. […]\nAfter the specified period of time, mortality in % is determined. […]"}, "Phaedon cochleariae": {"test_system": "Phaedon cochleariae", "experiment": "Phaedon cochleariae spray test, Chinese cabbage leaf-disks", "settings": "mortality after 6 d", "protocol": "as §1, §2, §3\n(§4) To produce a suitable preparation of active compound, 1 part by weight of active compound is mixed with the stated amount of solvent and emulsifier, and the concentrate is diluted with emulsifier-containing water to the desired concentration. To produce a suitable preparation of a spore suspension the spores are diluted with emulsifier-containing water to the desired concentration.\nChinese cabbage (Brassica pekinensis) leaf-disks are sprayed with a preparation of the active ingredient of the desired concentration. Once dry, the leaf disks are infested with mustard beetle larvae (Phaedon cochleariae).\nAfter the specified period of time, mortality in % is determined. 100% means all beetle larvae have been killed and 0% means none of the beetle larvae have been killed. The mortality values determined thus are recalculated using the Colby-formula (see above)."}, "Myzus persicae": {"test_system": "Myzus persicae", "experiment": "Myzus persicae spray test (MYZUPE), Chinese cabbage leaf-disks", "settings": "mortality after 6 d", "protocol": "as §1, §2, §3, §4\nChinese cabbage (Brassica pekinensis) leaf-disks infected with all instars of the green peach aphid (Myzus persicae), are sprayed with a preparation of the active ingredient of the desired concentration.\nAfter the specified period of time, mortality in % is determined. 100% means all aphids have been killed; 0% means none of the aphids have been killed. The mortality values determined thus are recalculated using the Colby-formula (see above)."}, "Spodoptera frugiperda": {"test_system": "Spodoptera frugiperda", "experiment": "Spodoptera frugiperda spray test, cotton leaves", "settings": "0.8 ppm; mortality after 1 d", "protocol": "as §1, §2\n(§5) If the observed insecticidal efficacy of the combination is higher than the one calculated as “E”, then the combination of the two compounds is more than additive, i.e., there is a synergistic effect. […]\n(§6) After the specified period of time, mortality in % is determined. […] The mortality values determined thus are recalculated using the Colby-formula (see above)."}, "Tetranychus urticae": {"test_system": "Tetranychus urticae", "experiment": "Tetranychus urticae spray test, OP-resistant, French beans", "settings": "0.032 g ai/ha; mortality after 2 d", "protocol": "as §1, §2, §5, §6"}}}
{"compound": "N#Cc1nn(-c2c(Cl)cc(C(F)(F)F)cc2Cl)c(N)c1[S+]([O-])C(F)(F)F", "note": "(stereo not drawn) [Fipronil (I95), Fipronil]", "values": [{"measurement": "Efficacy in % after 3d", "setting": "Nilaparvata lugens", "value": 0, "unit": "%"}, {"measurement": "Efficacy in % after 6d", "setting": "Phaedon cochleariae; 0.25 g ai/ha", "value": 33, "unit": "%"}, {"measurement": "Efficacy in % after 6d", "setting": "Myzus persicae; 4 g/ha", "value": 0, "unit": "%"}, {"measurement": "Efficacy in % after 6d", "setting": "Myzus persicae; 100 g/ha", "value": 0, "unit": "%"}]}
{"compound": "CNC(=O)Oc1cc(C)c(SC)c(C)c1", "note": "[Methiocarb (I15), Methiocarb]", "values": [{"measurement": "Efficacy in % after 6d", "setting": "Phaedon cochleariae; 20 g ai/ha", "value": 0, "unit": "%"}, {"measurement": "Efficacy in % after 6d", "setting": "Myzus persicae; 500 g/ha", "value": 0, "unit": "%"}]}
{"compound": "CS/C(C)=N\\OC(=O)N(C)SN(C)C(=O)O/N=C(\\C)SC", "note": "[Thiodicarb (I21), Thiodicarb]", "values": [{"measurement": "Efficacy in % after 1d", "setting": "Spodoptera frugiperda", "value": 50, "unit": "%"}]}
{"compound": "Abamectin [Abamectin (I152)]", "values": [{"measurement": "Efficacy in % after 2d", "setting": "Tetranychus urticae", "value": 0, "unit": "%"}, {"measurement": "Efficacy in % after 6d", "setting": "Phaedon cochleariae; 0.8 g ai/ha", "value": 0, "unit": "%"}]}
